Measurements from the supplement of paper PMC11208160.

Test: recombinant barcode read abundance after kanamycin selection (control-corrected) (log10(CPM+1)); higher = more efficient recombination; sequences stand for … in AGTGCAGAGAAAATCGGCCAGTTTTCTCTGCCTGCAGTCCGCATGCCGT…AGATTTATGCAGCGGACTGCCTTTCTCCCAAAGTGATAAACCGGACAGTATCATGGACCGGTTTTCCCGGTAATCCGTATTTGCAAGGTTGGTTTCACT; site = the 11-nt target
Summary of the method: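 Duplicate cultures were plated either on chloramphenicol/ampicillin LB agar, serving as control, or on chloramphenicol/ampicillin/kanamycin with 0.1 mM IPTG. These came from a pooled E. coli library co-electroporated with a donor plasmid, each member pairing a target with an IS621 bridge RNA target-binding loop. Recombination efficiency equals averaged, control-corrected counts per million of recombinant-junction barcodes. It is listed as log10(CPM+1).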
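Note: IS621 recombinase and bridge RNA in Escherichia coli cells.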

Sequence | recombinant barcode read abundance (log10)
TAAAAGCCTTGGGTTCTAACCTGTTGCCT (site TAAAAGACTAG) | 0.0773
CAAAGATCTTGGGTTCTAACCTGTTGCCT (site CGAAGATCTAG) | 0.023
TGAGACTCTTGGGTTCTAACCTGTTGCCT (site TGTGACTCTAG) | 0.463
CTAGTAGCTTGGGTTCTAACCTGTTGCGT (site CTAGTAGCTCC) | 0.378
TTAAGCTCTTGGGTTCTAACCTGTTGCCT (site CTAAGCTCTAG) | 0.197
AATTTCTCTTGGGTTCTAACCTGTTGCCT (site TATTTCTCTAG) | 0.0924
CTCTCATCTTGGGTTCTAACCTGTTGCTT (site CTCTCATCTAA) | 0.0308
CTAGACTCTTGGGTTCTAACCTGTTGCAC (site CTAGACTCTAT) | 0.626
GACACAACTTGGGTTCTAACCTGTTGCCT (site GACCCATCTAG) | 0.338
TCGGAATCTTGGGTTCTAACCTGTTGCCT (site GCGGAATCTAG) | 0
AAATTTCCTTGGGTTCTAACCTGTTGCCT (site ACATTTCCTAG) | 0.0879
GTTGAGTCTTGGGTTCTAACCTGTTGCGT (site CTTGAGCCTAC) | 0.0835
AGCTTATCTTGGGTTCTAACCTGTTGCCT (site AGCTTATCTAG) | 0.179
TACGCGGCTTGGGTTCTAACCTGTTGCCT (site TACGTGGCTAG) | 0.192
CAACGGCCTTGGGTTCTAACCTGTTGCCT (site CAATGGCCTAG) | 0.0566
AGGCGTCCTTGGGTTCTAACCTGTTGCCC (site AGGCGTCCTGG) | 1.78
AGTTGTCCTTGGGTTCTAACCTGTTGCAT (site AGTTGTCCTAT) | 0.219
ACGTCGTCTTGGGTTCTAACCTGTTGCCT (site ACGTCGTCTAG) | 0.0697
GTCCTATCTTGGGTTCTAACCTGTTGCTA (site AGGTCTACTGT) | 0.146
TCATATCCTTGGGTTCTAACCTGTTGCCT (site TCATATCCTAG) | 0.167
ACCTACCCTTGGGTTCTAACCTGTTGCGT (site ACATATCCTAC) | 0.0563
ACCAGTCCTTGGGTTCTAACCTGTTGCTG (site ACCAGTCCTTA) | 0.0735

Sequence | recombinant barcode read abundance (log10)
ACCTACTCTTGGGTTCTAACCTGTTGCCT (site ACCTACTCTAG) | 1.36
CGCCATCCTTGGGTTCTAACCTGTTGCAT (site CGCCCTCCTAT) | 0.227
TAATCTCCTTGGGTTCTAACCTGTTGCGT (site TAATCTCCTAC) | 0.167
TAGCGGACTTGGGTTCTAACCTGTTGCCT (site TAGCAGACTAG) | 0.106
TAGTCCGCTTGGGTTCTAACCTGTTGCGG (site GAGTTCGCTCC) | 0.00991
CTGCGTCCTTGGGTTCTAACCTGTTGCCT (site CTGCGTCCTAG) | 0.671
AGTGACTCTTGGGTTCTAACCTGTTGCCT (site AGTGACTCTAG) | 2.32
GACCGGGCTTGGGTTCTAACCTGTTGCCT (site GACCGGGCTAG) | 0.592
TACGACTCTTGGGTTCTAACCTGTTGCTT (site TTCGACTCTTA) | 0.0713
ACCAAGCCTTGGGTTCTAACCTGTTGCGG (site GCCCAGCCTCC) | 0.295
TGTTTAACTTGGGTTCTAACCTGTTGCCT (site TGGTTACCTAG) | 0.126
TAAGTCCCTTGGGTTCTAACCTGTTGCCT (site CAAGTCCCTAG) | 0.583
TTCAAGGCTTGGGTTCTAACCTGTTGCCT (site TTCAAGCCTAG) | 0.118
GTACGGCCTTGGGTTCTAACCTGTTGCCT (site GTACGGCCTAG) | 0.319
GGTCATCCTTGGGTTCTAACCTGTTGCCT (site GGTCATTCTAG) | 0.0693
GCCGTCCCTTGGGTTCTAACCTGTTGCTA (site GCCGTCCCTTA) | 0.202
CTTCGAGCTTGGGTTCTAACCTGTTGCTG (site CTTCGAGCTCT) | 0.294
ACATATCCTTGGGTTCTAACCTGTTGCGT (site ACCTACCCTAC) | 0.0409
GGGGTTCCTTGGGTTCTAACCTGTTGCGT (site GGGGTTCCTAA) | 0.321
GTTCCTCCTTGGGTTCTAACCTGTTGCCT (site GTTCCTGCTAG) | 0.0108
TCGGATGCTTGGGTTCTAACCTGTTGCAT (site TCGGATGCTAT) | 0.417
GCACCGCCTTGGGTTCTAACCTGTTGCCT (site TCACCGCCTAG) | 0.0378

Sequence | recombinant barcode read abundance (log10)
CACATGCCTTGGGTTCTAACCTGTTGCTG (site CACATGCCTCA) | 2
CGACCTGCTTGGGTTCTAACCTGTTGCCT (site CGCCCTACTAG) | 0.249
TCTAAGTCTTGGGTTCTAACCTGTTGCCT (site TCTAAGTCTTG) | 0.281
CACCTTCCTTGGGTTCTAACCTGTTGCAT (site CACATACCTAT) | 0.196
AAATTGACTTGGGTTCTAACCTGTTGCCT (site AAGTTGACTAG) | 0.0999
GGGCCTACTTGGGTTCTAACCTGTTGCTC (site GGGCCTACTGA) | 0.29
TGTCTACCTTGGGTTCTAACCTGTTGCTA (site TGTCTACCTTA) | 0.103
GTGGAAGCTTGGGTTCTAACCTGTTGCCT (site GCGGAAGCTAG) | 0.367
TACTCCTCTTGGGTTCTAACCTGTTGCGG (site TACTCCTCTCC) | 0.155
GAGAGGACTTGGGTTCTAACCTGTTGCTT (site GATAGAACTAA) | 0.0753
GGGCAGGCTTGGGTTCTAACCTGTTGCCT (site ATCGTATCTGC) | 0.189
CTTCAATCTTGGGTTCTAACCTGTTGCCT (site CTTAAATCTAG) | 0.146
GTGGAAGCTTGGGTTCTAACCTGTTGCCT (site GTGGAAGCTAG) | 1.1
CTTCACCCTTGGGTTCTAACCTGTTGCCT (site CTTCACCCTAG) | 1.76
AGTAGTGCTTGGGTTCTAACCTGTTGCCT (site AGTAGTGCTAG) | 0.0473
CACTTGGCTTGGGTTCTAACCTGTTGCAG (site CACTTGGCTCT) | 0.706
GACGGATCTTGGGTTCTAACCTGTTGCAT (site GACGGATCTAA) | 0.191
GACCGTCCTTGGGTTCTAACCTGTTGCAT (site GACCGTCCTAT) | 1.26
ACCTACCCTTGGGTTCTAACCTGTTGCGT (site ACCTACCCTAC) | 1.54
TAGCTCCCTTGGGTTCTAACCTGTTGCCA (site TAGCTCCCTGG) | 0.0734
GCACGCCCTTGGGTTCTAACCTGTTGCTT (site GCACGCCCTAA) | 0.737
TTGGTCACTTGGGTTCTAACCTGTTGCCT (site TTGGGCACTAG) | 0.205

Sequence | recombinant barcode read abundance (log10)
CTAAGGTCTTGGGTTCTAACCTGTTGCGT (site CTAAGGTCTAA) | 0.31
ACAATAGCTTGGGTTCTAACCTGTTGCTG (site ACAGTAGCTCA) | 0.0118
ACATGTCCTTGGGTTCTAACCTGTTGCAT (site ACATGTCCTAA) | 0.374
ACGCACCCTTGGGTTCTAACCTGTTGCCA (site ACGCACCCTTG) | 0.379
CATGATTCTTGGGTTCTAACCTGTTGCCT (site CATTATTCTAG) | 0.0435
CTTACAGCTTGGGTTCTAACCTGTTGCCT (site CTTACCGCTAG) | 0.138
CGCCTCGCTTGGGTTCTAACCTGTTGCCT (site CGCCTCGCTAG) | 0.0366
CTTCGGGCTTGGGTTCTAACCTGTTGCAT (site CTTCGGGCTAT) | 1.26
CAAGCACCTTGGGTTCTAACCTGTTGCTT (site CAAGCACCTAA) | 0.187
AGAAGCACTTGGGTTCTAACCTGTTGCCA (site AGAAGCACTTG) | 0.783
CTACACCCTTGGGTTCTAACCTGTTGCGA (site CTAAACCCTAC) | 0.0483
TCTATCCCTTGGGTTCTAACCTGTTGCCT (site TCAATCCCTAG) | 0.113
GTATGACCTTGGGTTCTAACCTGTTGCTT (site GTATGACCTAA) | 1.54
ATGGCGGCTTGGGTTCTAACCTGTTGCCT (site GTGGAGGCTAG) | 0.0374
TAGTCCTCTTGGGTTCTAACCTGTTGCTT (site TAGTCCTCTAA) | 1.22
TGTGACTCTTGGGTTCTAACCTGTTGCCT (site TGTGACTCTAG) | 0.912
GCAGGTGCTTGGGTTCTAACCTGTTGCTT (site GCAGGTGCTAA) | 1.75
TAGGGAGCTTGGGTTCTAACCTGTTGCAT (site TAGAGAGCTCT) | 0.0779
TGAAAGTCTTGGGTTCTAACCTGTTGCCT (site TGAAGGTCTAG) | 0.15
CGATCGCCTTGGGTTCTAACCTGTTGCCT (site GGACCGCCTAG) | 0.0952
